Data from US8530653B2, “Enzyme inhibiting compounds” (Chelsea Therapeutics, Inc., priority 2009, dated 2013).

Molecular target: T1, human dihydrofolate reductase (DHFR) (Homo sapiens, UniProt P00374)
T1 sequence (P00374 1-187): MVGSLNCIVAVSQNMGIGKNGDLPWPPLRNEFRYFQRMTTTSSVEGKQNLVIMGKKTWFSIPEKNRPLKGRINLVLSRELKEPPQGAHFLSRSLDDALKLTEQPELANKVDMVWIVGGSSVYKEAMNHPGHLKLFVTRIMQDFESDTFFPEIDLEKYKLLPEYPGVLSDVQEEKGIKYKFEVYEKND
Assay: Inhibition of human DHFR (spectrophotometric, decrease in absorbance at 340 nm)
Assay type: biochemical
Conditions: recombinant human DHFR 0.2 μg/mL, 0.1 mM dihydrofolate, 0.1 mM NADPH, pH 7.3, 37° C., 1% DMSO, triplicate
Protocol: The activity of multiple compounds as inhibitors of human dihydrofolate reductase (DHFR) was evaluated. The dry test compounds were dissolved in 100% DMSO at a concentration of 10 mM. For the test assays, the compounds were serially diluted in 100% DMSO and added to the assays so that the final concentration of DMSO in the assays was 1%.
The final assay conditions for the human DHFR assays were: […] KPO4 (pH7.3), 250 mM KCl, 0.1 mM dihydrofolate, 0.1 mM NADPH, 1% DMSO, and 0.2 μg/mL recombinant human DHFR. The final volume of the assay was 800 μL in a semi-micro cuvet.
A decrease in absorbance at 340 nm was monitored for three minutes in a Cary spectrophotometer at 37° C. The concentrations used for each compound across a range of 10,000 to 0.08 nM, depending on the expected level of activity. The assays were done in triplicate for each compound. […] A minimum of seven concentrations were used to generate a curve, and IC50 values were calculated using the Standard Curve Analysis of Sigma Plot Enzyme Kinetics software.

IC50 | Structure (SMILES)
5.4 nM | C=C(CC(NC(=O)c1ccc(CCc2ccc3nc(N)nc(N)c3c2)cc1)C(=O)O)C(=O)O (stereo not drawn) [Comparative, 2-{4-[2-(2,4-diamino-quinazolin-6-yl)-ethyl]-benzoylamino}-4-methylidene-pentanedioic acid, reference compound]
8.65 nM | Nc1nc(N)c2cc(CCc3ccc(C(=O)NCC[C@@H](O)C[C@@H](O)CC(=O)O)cc3)ccc2n1 [Inventive 1]
670 nM | Nc1nc(N)c2cc(CCc3ccc(CNCC[C@@H](O)C[C@@H](O)CC(=O)O)cc3)ccc2n1 [Inventive 2]
